According to US20060287247A1, “Halogen-substituted thienyl compounds” (priority 2001, published 2006):

What follows are compounds tested on C. albicans ATCC 38247 (assay: NCCLS broth microdilution MIC (antifungal)). Conditions: E = C. albicans ATCC 38247.
Assay type: cell-based
Procedure: (§1) Compounds according to this invention were screened for their in vitro activities against selected species of bacteria and fungi. The minimal inhibition concentration (MIC) of these compounds was determined using the National Committee for Clinical Laboratory Standards (NCCLS) broth microdilution assay in microtiter plates, as set forth in: (1) the guidelines of the National Committee for Clinical Laboratory Standards (NCCLS) Document M7-A4 (NCCLS, 1997); (2) the guidelines of the National Committee for Clinical Laboratory Standards (NCCLS) Document M11-A4 (NCCLS, 1997); and (3) the guidelines and reference method of the National Committee for Clinical Laboratory Standards (NCCLS) Document M27-T (NCCLS, 1995). For antifungal essays, the method recommended in Murray, P R., 1995 Manual of Clinical Microbiology (ASM Press, Washington, D.C.), was employed. […]

Compound | Minimum Inhibitory Concentration (MIC) [µg/mL]
Cn1cc(NC(=O)c2cc(NC(=O)CCNC(=O)c3cc(NC(=O)c4cc(NC(=O)c5cc(Br)c(Br)s5)cn4C)cn3C)cn2C)cc1C(=O)NCCC(=O)NCCCCCCN [Id-2] | >32
CC(C)N(CCNC(=O)CCNC(=O)c1cc(NC(=O)c2cc(NC(=O)CCNC(=O)c3cc(NC(=O)c4cc(NC(=O)c5cc(Br)c(Br)s5)cn4C)cn3C)cn2C)cn1C)C(C)C [Id-3] | >32

These compounds were tested on S. pneumoniae ATCC 49619 (assay: NCCLS broth microdilution MIC). Conditions: F = S. pneumoniae ATCC 49619.
Assay type: cell-based, Streptococcus pneumoniae
Procedure: as §1

Compound | Minimum Inhibitory Concentration (MIC)
Cn1cc(NC(=O)c2cc(NC(=O)CCNC(=O)c3cc(NC(=O)c4cc(NC(=O)c5cc(Br)c(Br)s5)cn4C)cn3C)cn2C)cc1C(=O)NCCC(=O)NCCCCCCN [Id-2] | +++ (+++ = MIC ≦4)
CC(C)N(CCNC(=O)CCNC(=O)c1cc(NC(=O)c2cc(NC(=O)CCNC(=O)c3cc(NC(=O)c4cc(NC(=O)c5cc(Br)c(Br)s5)cn4C)cn3C)cn2C)cn1C)C(C)C [Id-3] | +++ (+++ = MIC ≦4)

The compounds below were run on B. cereus ATCC 11778 (assay: NCCLS broth microdilution MIC). Conditions: C = B. cereus ATCC 11778.
Assay type: cell-based, Bacillus cereus
Procedure: as §1

Compound | Minimum Inhibitory Concentration (MIC)
Cn1cc(NC(=O)c2cc(NC(=O)CCNC(=O)c3cc(NC(=O)c4cc(NC(=O)c5cc(Br)c(Br)s5)cn4C)cn3C)cn2C)cc1C(=O)NCCC(=O)NCCCCCCN [Id-2] | +++ (+++ = MIC ≦4)
CC(C)N(CCNC(=O)CCNC(=O)c1cc(NC(=O)c2cc(NC(=O)CCNC(=O)c3cc(NC(=O)c4cc(NC(=O)c5cc(Br)c(Br)s5)cn4C)cn3C)cn2C)cn1C)C(C)C [Id-3] | +++ (+++ = MIC ≦4)

These compounds were tested on 5′-AAAAAGCAAAAA-3′ (assay: not given). Conditions: DNA sequence 5′-AAAAAGCAAAAA-3′; pH 7.0, 22° C.
Assay type: binding
Procedure: (§2) A number of compounds according to this invention were screened for their ability to bind to three DNA sites, using DNase I footprinting. Generally, the procedure described in Dervan, WO 98/50582 (1998), was followed.
(§3) A plasmid was prepared by hybridizing two sets of 5′-phosphorylated complementary oligonucleotides, one set being
(§4) The target sites and their complements are identified in bold underline.
(§5) The resulting duplexes were ligated to the large pUC19 AvaI/SalI restriction fragment. The 3′-P32 end-labeled EcoRI/PvuII fragment was prepared by digesting the plasmid with EcoRI and PvuII with simultaneous fill-in using Sequenase v. 2.0, [alpha-P32]-deoxyadenosine-5′-triphosphate, and [alpha-P32]-thymidine-5′-triphosphate, and isolating the cloned fragment by nondenaturing gel electrophoresis. Standard methods were used for all DNA manipulations, including A and G sequencing. See, e.g., Maxam et al., Methods Enzymol., 1980, 65, 499-560; Iverson et al., Methods Enzymol., 1987, 15, 7823-7830; and Sambrook et al., 1989, Molecular Cloning, 2nd ed., Cold Spring Harbor Laboratory Press: Cold Spring Harbor, N.Y.
(§6) Quantitative DNase I footprint titration experiments were carried out as described previously (Dervan, WO 98/50582, 1998, “Dervan '582”) with the following changes. All reactions were carried out in a total volume of 400 μL, with polyamide stock solution or water added to 15,000 cpm radiolabeled restriction fragment affording final solution conditions of 10 mM Tris.HCl, 10 mM KCl, 10 mM MgCl2, 5 mM CaCl2, pH 7.0 and 0.01 nM, 0.1 nM, 1.0 nM, 10.0 nM polyamide or no polyamide for reference lanes. The polyamides were allowed to equilibrate at 22° C. for 16 hr. Footprinting reactions were initiated with addition of 10 μL of a DNase I stock solution (at the appropriate concentration to give ˜50% intact DNA) containing 1 mM DTT and allowed to proceed for 7 min at 22° C. The reactions were stopped, ethanol precipitated, resuspended in loading buffer, heat denatured, and placed on ice as described in Dervan '582. The reaction products were separated on a precast 8% polyacrylamide denaturing sequencing Castaway gel with 32 preformed wells from Stratagene in 1× TBE at 2000 V. Gels were dried according to the manufacturer's instructions and exposed to a storage phosphor screen (Molecular Dynamics). Quantitation and data analysis were carried out as described in Dervan '582.

Compound | Equilibrium Association Constant (Ka) [M⁻¹]
Cn1cc(NC(=O)c2cc(NC(=O)CCNC(=O)c3cc(NC(=O)c4cc(NC(=O)c5cc(Br)c(Br)s5)cn4C)cn3C)cn2C)cc1C(=O)NCCC(=O)NCCCCCCN [Id-2] | 5e+08
CC(C)N(CCNC(=O)CCNC(=O)c1cc(NC(=O)c2cc(NC(=O)CCNC(=O)c3cc(NC(=O)c4cc(NC(=O)c5cc(Br)c(Br)s5)cn4C)cn3C)cn2C)cn1C)C(C)C [Id-3] | 5e+08

The compounds below were run on 5′-AAAAAGACAAAAA-3′ (assay: not given). Conditions: DNA sequence 5′-AAAAAGACAAAAA-3′; pH 7.0, 22° C.
Assay type: binding
Procedure: as §2, §3, §4, §5, §6

Compound | Equilibrium Association Constant (Ka) [M⁻¹]
Cn1cc(NC(=O)c2cc(NC(=O)CCNC(=O)c3cc(NC(=O)c4cc(NC(=O)c5cc(Br)c(Br)s5)cn4C)cn3C)cn2C)cc1C(=O)NCCC(=O)NCCCCCCN [Id-2] | 5e+08
CC(C)N(CCNC(=O)CCNC(=O)c1cc(NC(=O)c2cc(NC(=O)CCNC(=O)c3cc(NC(=O)c4cc(NC(=O)c5cc(Br)c(Br)s5)cn4C)cn3C)cn2C)cn1C)C(C)C [Id-3] | 5e+08

These compounds were tested on 5′-AAAAAGTACAAAAA-3′ (assay: not given). Conditions: DNA sequence 5′-AAAAAGTACAAAAA-3′; pH 7.0, 22° C.
Assay type: binding
Procedure: as §2, §3, §4, §5, §6

Compound | Equilibrium Association Constant (Ka) [M⁻¹]
Cn1cc(NC(=O)c2cc(NC(=O)CCNC(=O)c3cc(NC(=O)c4cc(NC(=O)c5cc(Br)c(Br)s5)cn4C)cn3C)cn2C)cc1C(=O)NCCC(=O)NCCCCCCN [Id-2] | 5e+09
CC(C)N(CCNC(=O)CCNC(=O)c1cc(NC(=O)c2cc(NC(=O)CCNC(=O)c3cc(NC(=O)c4cc(NC(=O)c5cc(Br)c(Br)s5)cn4C)cn3C)cn2C)cn1C)C(C)C [Id-3] | 5e+09

The compounds below were run on S. aureus ATCC 29213 (assay: NCCLS broth microdilution MIC). Conditions: A = S. aureus ATCC 29213.
Assay type: cell-based, Staphylococcus aureus
Procedure: as §1

Compound | Minimum Inhibitory Concentration (MIC)
Cn1cc(NC(=O)c2cc(NC(=O)CCNC(=O)c3cc(NC(=O)c4cc(NC(=O)c5cc(Br)c(Br)s5)cn4C)cn3C)cn2C)cc1C(=O)NCCC(=O)NCCCCCCN [Id-2] | +++ (+++ = MIC ≦4)
CC(C)N(CCNC(=O)CCNC(=O)c1cc(NC(=O)c2cc(NC(=O)CCNC(=O)c3cc(NC(=O)c4cc(NC(=O)c5cc(Br)c(Br)s5)cn4C)cn3C)cn2C)cn1C)C(C)C [Id-3] | +++ (+++ = MIC ≦4)

What follows are compounds tested on E. coli ATCC 25922 (assay: NCCLS broth microdilution MIC). Conditions: D = E. coli ATCC 25922.
Assay type: cell-based
Procedure: as §1

Compound | Minimum Inhibitory Concentration (MIC) [µg/mL]
Cn1cc(NC(=O)c2cc(NC(=O)CCNC(=O)c3cc(NC(=O)c4cc(NC(=O)c5cc(Br)c(Br)s5)cn4C)cn3C)cn2C)cc1C(=O)NCCC(=O)NCCCCCCN [Id-2] | >32
CC(C)N(CCNC(=O)CCNC(=O)c1cc(NC(=O)c2cc(NC(=O)CCNC(=O)c3cc(NC(=O)c4cc(NC(=O)c5cc(Br)c(Br)s5)cn4C)cn3C)cn2C)cn1C)C(C)C [Id-3] | >32

What follows are compounds tested on E. faecalis ATCC 29212 (assay: NCCLS broth microdilution MIC). Conditions: B = E. faecalis ATCC 29212.
Assay type: cell-based, Enterococcus faecalis
Procedure: as §1

Compound | Minimum Inhibitory Concentration (MIC)
Cn1cc(NC(=O)c2cc(NC(=O)CCNC(=O)c3cc(NC(=O)c4cc(NC(=O)c5cc(Br)c(Br)s5)cn4C)cn3C)cn2C)cc1C(=O)NCCC(=O)NCCCCCCN [Id-2] | +++ (+++ = MIC ≦4)
CC(C)N(CCNC(=O)CCNC(=O)c1cc(NC(=O)c2cc(NC(=O)CCNC(=O)c3cc(NC(=O)c4cc(NC(=O)c5cc(Br)c(Br)s5)cn4C)cn3C)cn2C)cn1C)C(C)C [Id-3] | +++ (+++ = MIC ≦4)
